Assay results from PubChem BioAssay (NCI).
Several values for one entry are separate records, joined by “and”; a condition that tells them apart may be missing. Equal entries are not always repeated.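 Interpolation was linear, between the two tested concentrations surrounding the appropriate level; five concentrations were tested over 48 hours in 96-well plates. At the GI50, growth is halved. TGI marks complete inhibition of growth.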

Key:
Assay in all cases: NCI anticancer screen, dose series, 48 h
[1] = system: DMS 114 small cell lung
[2] = system: EKVX NSCLC
[3] = system: HOP-92 NSCLC
[4] = system: K-562 leukemia
[5] = system: SF-268 CNS
[6] = system: SF-539 CNS
[7] = system: HOP-18 NSCLC
[8] = system: IGROV1 ovarian
[9] = system: HS 578T breast
[10] = system: PC-3 prostate

Row | SMILES | TGI [1] | TGI [2] | TGI [3] | TGI [4] | TGI [5] | TGI [6] | TGI [7] | TGI [8] | TGI [9] | TGI [10] | GI50 [1] | GI50 [2] | GI50 [3] | GI50 [9] | GI50 [8] | GI50 [4] | GI50 [10] | GI50 [5] | GI50 [6]
1 | COC1=CC(=O)C2C(C1=O)[C@@H]1c3ccccc3OC(C)(C)[C@H]21 (stereo partly specified) | 40.8 µM | 88.1 µM | 35.4 µM | 38.1 µM | 88.6 µM | 58.3 µM |  |  |  |  |  |  |  |  |  |  |  |  | 
2 | COc1cccc2c1C(=O)c1c(O)c3c(c(O)c1C2=O)C[C@@](O)(C(C)=O)C[C@@H]3OC1CC([N+]([O-])(Cc2ccccc2)Cc2ccccc2)C(O)C(C)O1 (stereo partly specified) | 2.64 µM | 3.47 µM | 3.14 µM |  |  | 2.62 µM | 3.55 µM | 4.82 µM |  |  |  |  |  |  |  |  |  |  | 
3 | CC(C)(CN1CCOCC1)C(=O)/C=C/c1ccc(/C=C/C(=O)C(C)(C)CN2CCOCC2)cc1 | 2.16 µM | 4.12 µM | 6.49 µM |  |  | 3.69 µM |  | 4.47 µM |  |  |  |  |  |  |  |  |  |  | 
4 | S=c1nc(C(c2ccccc2)c2ccccc2)[nH][nH]1 | > 100 µM | > 100 µM |  | > 100 µM | > 100 µM | > 100 µM |  | > 100 µM |  |  |  |  |  |  |  |  |  |  | 
5 | Cn1cnc([N+](=O)[O-])c1Sc1nnnn1C | 32.2 µM | 40.8 µM | 25.2 µM | 42.3 µM | 50.2 µM | 36.3 µM | 21.5 µM | 49.1 µM |  |  |  |  |  |  |  |  |  |  | 
6 | CC(CN1CC(=O)NC(=O)C1)N1CC(=O)NC(=O)C1 (stereo unspecified) | 409 µM | > 750 µM | 732 µM | > 750 µM | > 750 µM | > 750 µM | > 511 µM | > 725 µM | > 391 µM | > 750 µM |  |  |  |  |  |  |  |  | 
7 | CC(N)Cc1ccc(Cl)cc1 (stereo unspecified) |  | > 100 µM | > 100 µM | > 100 µM | > 100 µM | > 100 µM | > 100 µM | > 100 µM |  |  |  |  |  |  |  |  |  |  | 
8 | O=c1/c(=C/c2c(O)ccc3ccccc23)sc2nc3ccccc3n12 | > 100 µM | > 100 µM | > 100 µM | > 100 µM | > 100 µM | > 100 µM | > 100 µM | > 100 µM |  |  |  |  |  |  |  |  |  |  | 
9 | COC1CC(C)C(OC)c2cc(O)cc(c2O)NC(=O)/C(C)=C/C=C\C(C)C(OC(N)=O)/C(C)=C\C(C)C1OC (stereo unspecified) | 23.2 µM and 5.28 µM | 25 µM and 22.9 µM | 12.1 µM and 2.79 µM |  | 21.1 µM and 11 µM | 10.2 µM and 8.61 µM | 16.5 µM | 15.9 µM and 8 µM | 20.8 µM and 6.92 µM | 16.4 µM and 8.51 µM | 0.202 µM | 7.95 µM | 0.234 µM | 0.511 µM and 0.758 µM | 0.273 µM and 0.506 µM | 0.0333 µM and 0.143 µM and 0.0785 µM | 0.201 µM and 0.44 µM | 0.693 µM and 0.279 µM | 0.271 µM
10 | COc1cc(O)c(C(=O)CC(C)=O)c(OC)c1 | > 100 µM | > 100 µM |  | > 100 µM | > 100 µM | > 100 µM | > 100 µM | > 100 µM |  |  |  |  |  |  |  |  |  |  | 
11 | COc1ccc2c3c(c(C(=O)O)oc13)CCC2 | > 100 µM | > 100 µM | > 100 µM | > 100 µM | > 100 µM | > 100 µM |  | > 100 µM |  |  |  |  |  |  |  |  |  |  | 
12 | NCCOCn1cc(Cc2cccc(OCc3ccccc3)c2)c(=O)[nH]c1=O | > 100 µM | > 100 µM | > 100 µM | > 100 µM |  | > 100 µM | > 100 µM | > 100 µM |  |  |  |  |  |  |  |  |  |  | 
13 | Cc1ccc(NC(=O)C(=O)C(C(=O)c2ccc3ccccc3c2)C2OC(=O)c3ccccc32)c(C)c1 (stereo unspecified) | 31.7 µM | 52 µM | 27.8 µM | > 100 µM | 35.7 µM | 19.4 µM | 29.5 µM | 39.9 µM |  |  |  |  |  |  |  |  |  |  | 
14 | O=C1OC(c2ccccc2)(c2ccccc2)c2ccc3ccc(F)cc3c21 | > 100 µM | > 100 µM | > 100 µM | > 100 µM | > 100 µM | > 100 µM |  | > 100 µM |  |  |  |  |  |  |  |  |  |  | 
15 | CSC(=Nc1ccccc1Cl)NC(=O)c1ccc(Br)cc1 | > 100 µM | > 100 µM |  | 45 µM | > 100 µM | > 100 µM | 94.1 µM | > 100 µM |  |  |  |  |  |  |  |  |  |  | 
16 | O=C(N/C(=C\c1c(O)ccc2ccccc12)c1nc2ccccc2[nH]1)c1ccccc1 | > 100 µM | > 100 µM | > 100 µM | > 100 µM | > 100 µM | > 100 µM | > 100 µM | > 100 µM |  |  |  |  |  |  |  |  |  |  | 
17 | CCO/C(CCn1[nH]c(=O)c(Cl)c(Cl)c1=O)=N\NC(=O)C(=O)NN | > 100 µM | > 100 µM |  | > 100 µM | > 100 µM | > 100 µM | > 100 µM | > 100 µM |  |  |  |  |  |  |  |  |  |  | 
18 | O=C1NC(O)c2ccccc2O1 (stereo unspecified) |  | > 100 µM | > 100 µM | > 100 µM | > 100 µM | > 100 µM |  | > 100 µM | > 100 µM | > 100 µM |  |  |  |  |  |  |  |  | 
19 | CC1(C)OC2CC3COC(=O)C3CC2O1 (stereo unspecified) | > 100 µM | > 100 µM | > 100 µM | > 100 µM | > 100 µM | > 100 µM | > 100 µM | > 100 µM |  |  |  |  |  |  |  |  |  |  | 
20 | C/C(=N\NC(=O)CC#N)C(CN1CCCCC1)C(c1ccccc1)c1c(O)c2ccccc2oc1=O (stereo unspecified) |  | > 100 µM | 95.7 µM | > 100 µM | > 100 µM | > 100 µM |  | > 100 µM | > 100 µM | > 100 µM |  |  |  |  |  |  |  |  | 
21 | C#CCN(N=O)C(=O)NCCCCC(NC(=O)OCc1ccccc1)C(=O)OCc1ccccc1 (stereo unspecified) |  | > 100 µM | 42.1 µM | 56.9 µM | 73.5 µM | 37.4 µM | > 100 µM | > 100 µM |  |  |  |  |  |  |  |  |  |  | 
22 | C=C(C)[C@@H]1CC[C@]2(COCCCNCCCN)CC[C@]3(C)[C@H](CC[C@@H]4[C@@]5(C)CC[C@H](OCCCN)C(C)(C)[C@@H]5CC[C@]43C)[C@@H]12 |  | 1.61 µM | 9.76 µM | 1.82 µM | 15.1 µM | 1.59 µM |  | 1.72 µM | 2.15 µM | 1.72 µM |  | 0.812 µM | 2.1 µM | 0.997 µM | 0.93 µM | 0.879 µM | 0.874 µM | 6.77 µM | 0.891 µM
23 | O=C1/C(=C/c2ccc(F)c(F)c2)CN(C(=O)C(Cl)Cl)C/C1=C\c1ccc(F)c(F)c1 |  | 0.506 µM | 0.629 µM | > 100 µM | 0.982 µM | 0.276 µM |  | 0.264 µM | 1.01 µM | 0.273 µM |  | 0.188 µM | 0.211 µM | 0.261 µM | 0.0609 µM | 0.0235 µM | 0.0477 µM | 0.265 µM | 0.094 µM
24 | O=C(Nc1cc(Cl)ccc1Cl)c1cc2cccc(Br)c2oc1=O | > 100 µM | > 100 µM |  | > 100 µM |  | > 100 µM | > 100 µM | > 100 µM |  |  |  |  |  |  |  |  |  |  | 
